Patent US20160159814A1, “GLYCINE TRANSPORTER INHIBITOR” (TAISHO PHARMACEUTICAL CO., LTD., priority 2013, published 2016)
Where two headings read alike, the source gives them in different places.

Target: T1, human type 1 glycine transporter (GlyT1) (Homo sapiens, UniProt P48067)
T1 construct: T98G cells (glioma cells) expressing human type 1 glycine transporter (GlyT1) were used; endogenous in cells; host or cells: T98G cells (human glioma cells)
T1 sequence (P48067 1-706): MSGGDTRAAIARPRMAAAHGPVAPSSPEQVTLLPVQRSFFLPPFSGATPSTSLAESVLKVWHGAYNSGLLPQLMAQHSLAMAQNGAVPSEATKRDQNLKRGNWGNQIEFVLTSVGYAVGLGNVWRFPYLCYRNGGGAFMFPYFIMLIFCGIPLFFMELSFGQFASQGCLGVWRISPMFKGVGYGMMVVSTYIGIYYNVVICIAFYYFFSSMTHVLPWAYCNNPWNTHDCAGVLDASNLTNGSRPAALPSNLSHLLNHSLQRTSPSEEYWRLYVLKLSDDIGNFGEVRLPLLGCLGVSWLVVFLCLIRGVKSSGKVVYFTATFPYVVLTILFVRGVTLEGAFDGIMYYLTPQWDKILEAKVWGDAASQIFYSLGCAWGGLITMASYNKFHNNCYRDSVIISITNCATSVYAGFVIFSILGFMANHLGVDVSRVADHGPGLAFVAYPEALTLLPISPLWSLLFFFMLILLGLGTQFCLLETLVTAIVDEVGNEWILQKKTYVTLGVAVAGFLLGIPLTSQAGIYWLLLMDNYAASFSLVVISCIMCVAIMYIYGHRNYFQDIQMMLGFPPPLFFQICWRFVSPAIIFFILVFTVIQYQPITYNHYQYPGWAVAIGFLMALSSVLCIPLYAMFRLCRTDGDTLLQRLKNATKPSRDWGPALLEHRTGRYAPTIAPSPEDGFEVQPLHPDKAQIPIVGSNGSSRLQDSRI
Assay: Glycine uptake inhibition experiment ([3H] glycine uptake in T98G cells expressing GlyT1)
Format: cell-based
Protocol: Glycine Uptake Inhibition Experiment
A glycine uptake experiment was conducted in accordance with the method published in Neuron, 8, 927-935, 1992. In the experiment, T98G cells (glioma cells) expressing human type 1 glycine transporter (GlyT1) were used. The T98G cells were seeded in a 96-well plate at 2.0×10^4 cells/well and cultured overnight in a CO2 incubator. The test substance was dissolved in a 100% DMSO solution and then dissolved in a 10 mM HEPES buffer solution (pH 7.4) containing 150 mM sodium chloride, 1 mM calcium chloride, 5 mM potassium chloride, 1 mM magnesium chloride, 10 mM glucose and 0.2% bovine serum albumin. After removing the cell culture medium, the test substance was subjected to a 10-min pretreatment. Subsequently, the test substance and [^3H] glycine (final concentration: 250 nM) were added to the cells and reaction was performed at room temperature for 15 minutes. After the end of the reaction, the extracellular fluid was aspirated with a manifold to remove excess labeled glycine present outside the cells, and then the cells were lysed with a 0.5 M aqueous sodium hydroxide solution. The glycine content in the cells was determined by measuring the radioactivity in the cell lysate with a liquid scintillation counter. Glycine uptake in the presence of 10 μM ALX5407 was defined as non-specific uptake, and the value calculated by subtracting the amount of the non-specific uptake from the total uptake in the absence of 10 μM ALX5407 was defined as specific uptake. In addition, glycine uptake inhibitory activity (IC50 value) was calculated from an inhibition curve at the concentrations of each test substance ranging from 10^−9 to 10^−5 M. It should be noted that ALX5407 is an HCl salt of N-[(3R)-3-([1,1′-biphenyl]-4-yloxy)-3-(4-fluorophenyl)propyl]-N-methylglycine.

| SMILES | IC50 [µM] | IC50 (glycine uptake inhibition) [µM] | other results |
| --- | --- | --- | --- |
| C[C@H](O)c1cccc2c1C(F)(F)C(=O)N2Cc1ccc2cc[nH]c2n1 [Compound 115, 3,3-difluoro-4-[(1S)-1-hydroxyethyl]-1-(1H-pyrrolo[2,3-b]pyridin-6-ylmethyl)-1,3-dihydro-2H-indol-2-one] | – | 0.098 | – |
| N#Cc1cc(CN2C(=O)C(F)(F)c3c(C(O)C(F)F)cccc32)ccn1 (single isomer, unassigned) [Compound 110, 4-{[4-(2,2-difluoro-1-hydroxyethyl)-3,3-difluoro-2-oxo-2,3-dihydro-1H-indol-1-yl]methyl}pyridine-2-carbonitrile] | – | 2.1 | – |
| C[C@H](O)c1cccc2c1C(F)(F)C(=O)N2Cc1cc2ccccc2c(=O)[nH]1 [Compound 99, 3-({3,3-difluoro-4-[(1S)-1-hydroxyethyl]-2-oxo-2,3-dihydro-1H-indol-1-yl}methyl) isoquinolin-1(2H)-one] | – | 0.048 | – |
| C[C@@H](O)c1cccc2c1C(F)(F)C(=O)N2Cc1nc2ccccc2c(=O)n1C [Compound 39, 2-({3,3-difluoro-4-[(1R)-1-hydroxyethyl]-2-oxo-2,3-dihydro-1H-indol-1-yl}methyl)-3-methylquinazolin-4(3H)-one] | – | 0.62 | – |
| C[C@@H](O)c1cccc2c1C(F)(F)C(=O)N2Cc1ccnc(F)c1 [Compound 43, 3,3-difluoro-1-[(2-fluoropyridin-4-yl)methyl]4-[(1R)-1-hydroxyethyl]-1,3-dihydro-2H-indol-2-one] | – | 4.4 | – |
| COc1cc(CN2C(=O)C(F)(F)c3c([C@H](C)O)cccc32)ncc1F [Compound 261, 3,3-difluoro-1-[(5-fluoro-4-methoxypyridin-2-yl)methyl)-[(1S)-1-hydroxyethyl]-1,3-dihydro-2H-indol-2-one] | – | – | IC50 (table section whose head prints (μm)): 0.25 µM |
| O=C1N(Cc2cncc(Cl)c2)c2ccc(Cl)c([C@@H](O)C(F)(F)F)c2C1(F)F [Compound 95, 5-chloro-1-[(5-chloropyridin-3-yl)methyl]-3,3-difluoro-4-[(1R)-2,2,2-trifluoro-1-hydroxyethyl]-1,3-dihydro-2H-indol-2-one] | – | 1 | – |
| CC(c1cccc(Cl)n1)N1C(=O)C(F)(F)c2c([C@H](C)O)cccc21 (single isomer, unassigned) [Compound 52] | – | 0.33 | – |
| C[C@H](O)c1cccc2c1C(F)(F)C(=O)N2Cc1cc(Br)ccn1 [Compound 123, 1-[(4-bromopyridin-2-yl)methyl]-3,3-difluoro-4-[(1S)-1-hydroxyethyl]-1,3-dihydro-2H-indol-2-one] | – | 0.022 | – |
| COc1ccnc(CN2C(=O)C(F)(F)c3c([C@H](C)O)cccc32)c1 [Compound 66, 3,3-difluoro-4-[(1S)-1-hydroxyethyl]-1-[(4-methoxypyridin-2-yl)methyl]-1,3-dihydro-2H-indol-2-one] | – | 0.13 | – |
| CC(c1cccc(Cl)n1)N1C(=O)C(F)(F)c2c([C@H](C)O)cccc21 (single isomer, unassigned) [Compound 53] | – | 0.14 | – |
| N#Cc1cccc(CN2C(=O)C(F)(F)c3c(C(O)C(F)(F)F)cccc32)n1 (single isomer, unassigned) [Compound 18, 6-{[3,3-difluoro-2-oxo-4-(2,2,2-trifluoro-1-hydroxyethyl)-2,3-dihydro-1H-indol-1-yl]methyl}pyridine-2-carbonitrile] | – | 3.3 | – |
| O=C1N(Cc2cccc(Cl)n2)c2cccc(C3(O)CCC3)c2C1(F)F [Compound 24, 1-[(6-chloropyridin-2-yl)methyl]-3,3-difluoro-4-(1-hydroxycyclobutyl)-1,3-dihydro-2H-indol-2-one] | – | 5.9 | – |
| C[C@H](O)c1cccc2c1C(F)(F)C(=O)N2Cc1nc2ccccc2o1 [Compound 81, 1-(1,3-benzoxazol-2-ylmethyl)-3,3-difluoro-4-[(1S)-1-hydroxyethyl]-1,3-dihydro-2H-indol-2-one] | – | 0.03 | – |
| C[C@H](O)c1cccc2c1C(F)(F)C(=O)N2Cc1cnc2ccccc2n1 [Compound 83, 3,3-difluoro-4-[(1S)-1-hydroxyethyl]-1-(quinoxalin-2-ylmethyl)1,3-dihydro-2H-indol-2-one] | – | 0.03 | – |
| C[C@H](O)c1cccc2c1C(F)(F)C(=O)N2Cc1nc2cc(F)ccc2o1 [Compound 92, 3,3-difluoro-1-[(5-fluoro-1,3-benzoxazol-2-yl)methyl]-4-[(1S)-1-hydroxyethyl]-1,3-dihydro-2H-indol-2-one] | – | 0.069 | – |
| O=C1N(Cc2cncc(Cl)c2)c2ccc(F)c(C(O)C(F)(F)F)c2C1(F)F (stereo not shown) [Compound 48, 1-[(5-chloropyridin-3-yl)methyl]-3,3,5-trifluoro-4-(2,2,2-trifluoro-1-hydroxyethyl)-1,3-dihydro-2H-indol-2-one] | – | 0.085 | – |

Continued, in another order:

| IC50 [µM] | IC50 (glycine uptake inhibition) [µM] | SMILES | other results |
| --- | --- | --- | --- |
| 0.057 | – | C[C@H](O)c1cccc2c1C(F)(F)C(=O)N2Cc1ncc(Cl)cc1Cl [Compound 225, 1-[(3,5-dichloropyridin-2-yl)methyl]-3,3-difluoro-4-[(1S)-1-hydroxyethyl]-1,3-dihydro-2H-indol-2-one] | – |
| 0.17 | – | O=C1N(Cc2nc3cc(F)ccc3o2)c2cccc(C(O)C(F)F)c2C1(F)F (single isomer, unassigned) [Compound 171, 4-(2,2-difluoro-1-hydroxyethyl)-3,3-difluoro-1-[(5-fluoro-1,3-benzoxazol-2-yl)methyl]-1,3-dihydro-2H-indol-2-one] | – |
| – | 0.93 | C[C@H](O)c1cccc2c1C(F)(F)C(=O)N2Cc1ccc(C(F)F)cn1 [Compound 131, 1-{[5-(difluoromethyl)pyridin-2-yl]methyl)-3,3-difluoro-4-[(1S)-1-hydroxyethyl]-1,3-dihydro-2H-indol-2-one] | – |
| 0.83 | – | C[C@H](O)c1cccc2c1C(F)(F)C(=O)N2Cc1ccc(C#N)nc1 [Compound 201, 5-({3,3-difluoro-4-[(1S)-1-hydroxyethyl]-2-oxo-2,3-dihydro-1-indol-1-yl}methyl)pyridine-2-carbonitrile] | – |
| 0.063 | – | COc1nc(Cl)ccc1CN1C(=O)C(F)(F)c2c([C@H](C)O)cccc21 [Compound 230, 1-[(6-chloro-2-methoxypyridin-3-yl)methyl]-3,3-difluoro-4-[(1S)-1-hydroxyethyl]-1,3-dihydro-2H-indol-2-one] | – |
| 0.0017 | – | C[C@H](O)c1cccc2c1C(F)(F)C(=O)N2Cc1ccc(F)c(Br)n1 [Compound 229, 1-[(6-bromo-5-fluoropyridin-2-yl)methyl]-3,3-difluoro-4-[(1S)-1-hydroxyethyl)-1,3-dihydro-2H-indol-2-one] | – |
| 0.11 | – | Cn1c(CN2C(=O)C(F)(F)c3c(C(O)C(F)F)cccc32)nc2ccccc21 (single isomer, unassigned) [Compound 170, 4-(2,2-difluoro-1-hydroxyethyl)-3,3-difluoro-1-[(1-methyl-1H-benzimidazol-2-yl)methyl]-1,3-dihydro-2H-indol-2-one] | – |
| 0.0096 | – | COc1cccc(CN2C(=O)C(F)(F)c3c(C(O)C(F)F)cccc32)n1 (single isomer, unassigned) [Compound 256, 4-(2,2-difluoro-1-hydroxyethyl)-3,3-difluoro-1-[(6-methoxypyridin-2-yl)methyl)-1,3-dihydro-2H-indol-2-one] | – |
| 0.095 | – | CC(O)c1c(F)ccc2c1C(F)(F)C(=O)N2Cc1ccnc(C#N)c1 (single isomer, unassigned) [Compound 184, 4-{(3,3,5-trifluoro-4-(1-hydroxyethyl)-2-oxo-2,3-dihydro-1H-indol-1-yl]methyl}pyridine-2-carbonitrile] | – |
| – | 0.039 | O=C1N(Cc2cncc(-n3nccn3)c2)c2cccc(C(O)C(F)F)c2C1(F)F (single isomer, unassigned) [Compound 148, 4-(2,2-difluoro-1-hydroxyethyl)-3,3-difluoro-1-{[5-(2H-1,2,3-triazol-2-yl)pyridin-3-yl]methyl}-1,3-dihydro-2H-indol-2-one] | – |
| 4.2 | – | C[C@H](O)c1cccc2c1C(F)(F)C(=O)N2Cc1ccc(-n2nccn2)nc1 [Compound 196, 3,3-difluoro-4-[(1S)-1-hydroxyethyl]-1-{[6-(2H-1,2,3-triazol-2-yl)pyridin-3-yl]methyl)-1,3-dihydro-2H-indol-2-one] | – |
